Molecules are shown by their SMILES. Calls of active or inactive are those of the source. No cut-off for these calls is given here. A value given as a limit tells only on which side of the number the result lay.

Assay [1] relates to MCF7. The experiment in a line: Antiestrogenic activity in human MCF7 cells. It is filed as functional, cell-based.
The target of assay [2] is T1, Estrogen receptor (Homo sapiens) (UniProt P03372).
T1 sequence (whole entry): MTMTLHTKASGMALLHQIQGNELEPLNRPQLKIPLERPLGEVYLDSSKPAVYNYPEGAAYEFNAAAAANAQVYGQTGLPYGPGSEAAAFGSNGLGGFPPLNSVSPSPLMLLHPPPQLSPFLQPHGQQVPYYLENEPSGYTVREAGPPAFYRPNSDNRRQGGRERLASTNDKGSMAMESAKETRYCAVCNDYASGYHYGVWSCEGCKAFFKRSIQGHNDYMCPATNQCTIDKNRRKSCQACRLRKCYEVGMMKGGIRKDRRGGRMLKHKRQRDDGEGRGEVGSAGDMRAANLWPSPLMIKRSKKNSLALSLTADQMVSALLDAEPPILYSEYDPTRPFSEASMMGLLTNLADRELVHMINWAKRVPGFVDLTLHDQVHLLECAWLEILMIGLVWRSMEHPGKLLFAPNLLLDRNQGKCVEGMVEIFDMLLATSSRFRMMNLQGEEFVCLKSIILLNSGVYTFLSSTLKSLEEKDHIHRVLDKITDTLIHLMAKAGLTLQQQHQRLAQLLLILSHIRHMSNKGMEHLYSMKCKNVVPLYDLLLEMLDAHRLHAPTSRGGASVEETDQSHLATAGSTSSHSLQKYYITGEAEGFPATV
The experiment in a line: Displacement of [2,4,6,7-3H]17beta-estradiol from human recombinant ERalpha receptor by liquid scintillation counter relative to 17-beta-estradiol.

The target of assay [3] is Estrogen receptor beta (Homo sapiens) (UniProt Q92731). The experiment in a line: Displacement of [2,4,6,7-3H]17beta-estradiol from human recombinant ERbeta receptor by liquid scintillation counter relative to 17-beta-estradiol.
The species named for assay [4] is Homo sapiens. The experiment in a line: Selectivity ratio of relative binding affinity for human recombinant ERalpha receptor to relative binding affinity for human recombinant ERbeta receptor.
Assay [5] concerns MCF7. The experiment in a line: Estrogenic activity in human MCF7 cells assessed as cell proliferation after 6 days by WST8 assay relative to 17-beta-estradiol. It is filed as functional.
Assay [6] deals with MCF7. The experiment in a line: cells. As to conditions: Homo sapiens, MCF7, 144 h.
Assay [7] deals with MCF7. The experiment in a line: Estrogenic activity in human MCF7 cells assessed as cell proliferation after 6 days by WST8 assay.

Estrogen receptor beta (Homo sapiens), sequence (Q92731 whole entry): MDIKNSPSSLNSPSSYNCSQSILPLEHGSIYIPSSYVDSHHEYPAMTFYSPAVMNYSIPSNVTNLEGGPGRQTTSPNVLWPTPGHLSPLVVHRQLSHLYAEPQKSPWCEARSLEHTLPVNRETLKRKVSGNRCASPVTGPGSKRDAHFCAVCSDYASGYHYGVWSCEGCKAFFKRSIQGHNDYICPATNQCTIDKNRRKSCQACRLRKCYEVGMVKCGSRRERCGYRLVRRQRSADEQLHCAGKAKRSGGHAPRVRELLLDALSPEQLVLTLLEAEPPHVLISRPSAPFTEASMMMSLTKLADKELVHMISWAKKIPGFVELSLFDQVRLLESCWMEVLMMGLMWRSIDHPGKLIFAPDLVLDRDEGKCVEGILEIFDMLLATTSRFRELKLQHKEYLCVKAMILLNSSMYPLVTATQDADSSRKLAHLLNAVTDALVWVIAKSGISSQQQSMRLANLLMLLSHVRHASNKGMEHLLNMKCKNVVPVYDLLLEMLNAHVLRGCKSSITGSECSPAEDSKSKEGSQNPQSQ

Take `Oc1ccc(N(CC2CC2)c2ccc(O)cc2)cc1`: the result in assay [1] was inactive. Besides, the values for the relative binding affinity (RBA) in assay [2] and in assay [3] were 0.054 and less than 0.001, respectively.

Take `Oc1ccc(N(Cc2ccccc2)c2ccc(O)cc2)cc1`: the Ratio in assay [4] turned out to be 27.7. In addition, the Activity in assay [5] was 85. Also, the outcome in assay [1] was inactive. The relative binding affinity (RBA) in assay [2] amounted to 0.655; in assay [3] it was 18.1. The molecule also displayed an EC50 in assay [6] of 67 nM.

As for `CS(=O)(=O)N(c1ccc(O)cc1)c1ccc(O)cc1`, the Activity in assay [5] came out at 213. In addition, the result in assay [1] was inactive. Moreover, the relative binding affinity (RBA) in assay [2] and in assay [3] was less than 0.001 throughout. In assay [6], this molecule yielded an EC50 of 6900 nM.

As for `CCCCCCN(c1ccc(O)cc1)c1ccc(O)cc1`, the Ratio in assay [4] is 0.667. Besides, in assay [5], the Activity came to 130. For the same molecule, in assay [1], the outcome was inactive. Besides, the relative binding affinity (RBA) was 0.153 in assay [2] and 0.102 in assay [3]. The molecule also registered an EC50 in assay [6] of 11 nM.

Regarding `O=S(=O)(c1ccccc1)N(c1ccc(O)cc1)c1ccc(O)cc1`, the Activity in assay [5] was determined as 98. Further, the result in assay [1] was inactive. The relative binding affinity (RBA) in assay [2] was 0.04; in assay [3], less than 0.001. For the same molecule, the midpoint of the response in assay [6], the EC50, lay at 63 nM.

In the case of `O=C(c1ccccc1)N(c1ccc(O)cc1)c1ccc(O)cc1`, the Ratio in assay [4] amounted to 6.52. Besides, in assay [5], the Activity worked out at 114. In assay [1], the outcome was inactive. Also, the relative binding affinity (RBA) in assay [2] was 0.193; in assay [3], 1.26. This molecule showed an EC50 in assay [6] of 14 nM.

Take `Oc1ccc(Nc2ccc(O)cc2)cc1`: the outcome in assay [1] and in assay [7] was inactive. In addition, the relative binding affinity (RBA) in assay [2] and in assay [3] was less than 0.001 in each case.

For the molecule `Oc1ccc(CN(c2ccc(O)cc2)c2ccc(O)cc2)cc1`, the Ratio in assay [4] was 0.951. In assay [5], the Activity was determined as 42. Besides, the outcome in assay [1] was inactive. Moreover, the relative binding affinity (RBA) in assay [2] came to 4.26; in assay [3], 4.05. Further, in assay [6], the half-maximal effective concentration (EC50) came to 370 nM.

`CC(C)CCN(c1ccc(O)cc1)c1ccc(O)cc1`: in assay [4], the Ratio was 18.1. Besides, in assay [5], the Activity is given as 31. The result in assay [1] was inactive. For the same molecule, the values for the relative binding affinity (RBA) in assay [2] and in assay [3] were 0.129 and 2.34, respectively. This molecule registered an EC50 in assay [6] of 570 nM.

On to `CN(c1ccc(O)cc1)c1ccc(O)cc1`, for which the outcome in assay [1] and in assay [7] was inactive. Further, the relative binding affinity (RBA) in assay [2] and in assay [3] was less than 0.001 throughout.

Take `Oc1ccc(N(CC23CC4CC(CC(Br)(C4)C2)C3)c2ccc(O)cc2)cc1`: the Ratio in assay [4] turned out to be 1.02. In addition, the Activity in assay [5] turned out to be 77. In addition, the result in assay [1] was inactive. The relative binding affinity (RBA) in assay [2] was 0.551; in assay [3] it was 0.565. In assay [6], the EC50 came out at 11000 nM.

In the case of `O=C(c1ccc(O)cc1)N(c1ccc(O)cc1)c1ccc(O)cc1`, the Ratio in assay [4] came out at 0.188. In addition, the Activity in assay [5] amounted to 240. For the same molecule, the result in assay [1] was inactive. Further, the relative binding affinity (RBA) came to 0.336 in assay [2] and 0.063 in assay [3]. Further, a half-maximal effect in assay [6] (EC50) was put at 5.2 nM.

`CC(C)N(c1ccc(O)cc1)c1ccc(O)cc1`: the result in assay [1] and in assay [7] was inactive. Besides, the relative binding affinity (RBA) in assay [2] and in assay [3] was less than 0.001 each time.

As for `O=S(=O)(c1ccc(O)cc1)N(c1ccc(O)cc1)c1ccc(O)cc1`, the Ratio in assay [4] was 0.011. In assay [5], the Activity amounted to 99. Further, the result in assay [1] was inactive. Besides, the relative binding affinity (RBA) came out at 0.352 in assay [2] and 0.004 in assay [3]. Also, a half-maximal effect in assay [6] (EC50) was put at 12 nM.

In the case of `Oc1ccc(N(c2ccccc2)c2ccc(O)cc2)cc1`, the Ratio in assay [4] is 1.48. Further, the Activity in assay [5] stood at 87. In addition, the outcome in assay [1] was inactive. The values for the relative binding affinity (RBA) in assay [2] and in assay [3] were 1.29 and 1.91, respectively. Besides, in assay [6], a half-maximal effect (EC50) was put at 120 nM.

As for `CC(=O)N(c1ccc(O)cc1)c1ccc(O)cc1`, in assay [5], the Activity was determined as 114. Moreover, the outcome in assay [1] was inactive. In addition, the relative binding affinity (RBA) in assay [2] and in assay [3] was less than 0.001 in each case. In assay [6], this molecule came in with an EC50 of 43000 nM.

Regarding `Oc1ccc(N(c2ccc(O)cc2)C2CCCCC2)cc1`, in assay [4], the Ratio worked out at 3.8. The Activity in assay [5] is listed as 64. Moreover, the outcome in assay [1] was inactive. Also, the relative binding affinity (RBA) in assay [2] is 1.13; in assay [3] it was 4.3. The same molecule came in with an EC50 in assay [6] of 590 nM.

Turning to `Oc1ccc(N(CC2CCCCC2)c2ccc(O)cc2)cc1`, in assay [4], the Ratio was 7.52. For the same molecule, in assay [5], the Activity is 109. Also, the result in assay [1] was inactive. Moreover, the values for the relative binding affinity (RBA) in assay [2] and in assay [3] were 0.89 and 6.7, respectively. This molecule also returned an EC50 in assay [6] of 210 nM.

Regarding `Oc1ccc(N(CCC2CCCCC2)c2ccc(O)cc2)cc1`, the Ratio in assay [4] stood at 1.88. Besides, the Activity in assay [5] worked out at 71. Besides, in assay [1], the outcome was inactive. Besides, the relative binding affinity (RBA) in assay [2] came out at 3.64; in assay [3] it was 6.84. Further, in assay [6], a half-maximal effect (EC50) was put at 500 nM.

These data come from ChEMBL document CHEMBL1141697, “Promising core structure for nuclear receptor ligands: design and synthesis of novel estrogen receptor ligands based on diphenylamine skeleton” (Bioorg Med Chem Lett, 2008).
